Laboratory results published in patent US20050124684A1, “5-(hydroxymethyl) furfural and derivatives as inhibitors of TNFalpha and IL-1beta production” (priority 2003, published 2005).

What was measured:
[1] = system: TNFα; experiment: Inhibition of LPS-induced TNFα expression in PBMCs (ELISA); assay type: cell-based; details: LPS-stimulated PBMCs; for Concentration of TNFα in PBMCs / Inhibition ratio of production of TNFα in PBMCs: overnight
Experimental: (§1) Peripheral blood […] (PBMCs) were isolated from fresh blood using a Ficoll-Paque Plus reagent (Amersham Bioscience) according to the protocol recommended by the manufacturer. The cells were suspended in a RPMI 1640 medium containing 10% FBS at a concentration of 1×10^5 cells/ml and seeded in a 96-well plate (1×10^4 cells total in each well). Each reaction was carried out in three wells. […] In a positive control, dexamethason (DEX), an anti-inflammatory agent, instead of 5-HMF, was added (final concentration 10 μM). In a positive control, 10 μl of the medium, instead of 5-HMF, was added. The plate was incubated at 37° C. under 5% CO2 for 15 minutes. After 10 μl aliquots of 100 μg/ml of lipopolysaccharide (LPS) were added to all wells except for the negative control, the plate was incubated at 37° C. under 5% CO2 overnight. The plate was spun at 1000 rpm for 15 minutes and the supernatants were collected. The concentrations of TNFα and IL-1β were measured by the TNFα ELISA (Enzyme Linked Immunosorbent Assay) Kit and IL1-β ELISA Kit (Jingmei Bioengineer Technology). The inhibition ratios of TNFα and IL1-β were calculated as follows and the results are shown in Tables 1 and 2: TNFα Inhibition Ratio (%)=[TNFα]control−[TNFα]5-HMF/[TNFα]control×100% IL1-β Inhibition Ratio (%)=[IL1-β]control−[IL1-β]5-HMF/[IL1-β]control×100% where [TNFα]5-HMF is the concentration of TNFα in PBMCs treated with 5-HMF and LPS, [TNFα]control is the concentration of TNFα in PBMCs treated with LPS and the medium, [IL1-β]5-HMF is the concentration of IL1-β in PBMCs treated with 5-HMF and LPS, and [IL1-β]control is the concentration of IL1-β in PBMCs treated with LPS and the medium.

[2] = system: IL-1β; experiment: Inhibition of LPS-induced IL-1β expression in PBMCs (ELISA); assay type: cell-based; details: LPS-stimulated PBMCs; for Concentration of IL-1β in PBMCs / Inhibition ratio of production of IL-1β in PBMCs: overnight
Experimental: as §1

[3] = at the concentration of 300 μg/ml

O=Cc1ccc(CO)o1 [5-HMF, 5-(hydroxymethyl)furfural]
Concentration of TNFα in PBMCs ([1]; 5-HMF 3 μg/ml): 124.4 ± 15.2 pg/mL
Inhibition ratio of production of TNFα in PBMCs ([1]; 5-HMF 3 μg/ml): 15.7 ± 10.3%
Concentration of TNFα in PBMCs ([1]; 5-HMF 10 μg/ml): 107.9 ± 20.0 pg/mL
Inhibition ratio of production of TNFα in PBMCs ([1]; 5-HMF 10 μg/ml): 26.8 ± 13.6%
Concentration of TNFα in PBMCs ([1]; 5-HMF 30 μg/ml): 82.9 ± 27.9 pg/mL
Inhibition ratio of production of TNFα in PBMCs ([1]; 5-HMF 30 μg/ml): 43.8 ± 18.9%
Concentration of TNFα in PBMCs ([1]; 5-HMF 100 μg/ml): 39.3 ± 19.7 pg/mL
Inhibition ratio of production of TNFα in PBMCs ([1]; 5-HMF 100 μg/ml): 73.4 ± 13.4%
Concentration of TNFα in PBMCs ([1]; 5-HMF 300 μg/ml): 0.3 ± 6.4 pg/mL
Inhibition ratio of production of TNFα in PBMCs ([1]; 5-HMF 300 μg/ml): 99.3 ± 4.3%
Inhibition of expression of TNFα (in words) [1, 3]: completely inhibited
Inhibition of expression of TNFα (in words) ([1]; over the tested concentrations): concentration-dependent
Concentration of IL-1β in PBMCs ([2]; 5-HMF 3 μg/ml): 69.9 ± 12.6 pg/mL
Inhibition ratio of production of IL-1β in PBMCs ([2]; 5-HMF 3 μg/ml): 40.2 ± 10.8%
Concentration of IL-1β in PBMCs ([2]; 5-HMF 10 μg/ml): 62.7 ± 10.5 pg/mL
Inhibition ratio of production of IL-1β in PBMCs ([2]; 5-HMF 10 μg/ml): 46.4 ± 9.0%
Concentration of IL-1β in PBMCs ([2]; 5-HMF 30 μg/ml): 40.1 ± 2.4 pg/mL
Inhibition ratio of production of IL-1β in PBMCs ([2]; 5-HMF 30 μg/ml): 65.7 ± 2.0%
Concentration of IL-1β in PBMCs ([2]; 5-HMF 100 μg/ml): 13.0 ± 3.7 pg/mL
Inhibition ratio of production of IL-1β in PBMCs ([2]; 5-HMF 100 μg/ml): 88.8 ± 3.1%
Concentration of IL-1β in PBMCs ([2]; 5-HMF 300 μg/ml): 0 ± 5.0 pg/mL
Inhibition ratio of production of IL-1β in PBMCs ([2]; 5-HMF 300 μg/ml): 100 ± 4.3%
Inhibition of expression of IL-1β (in words) [2, 3]: completely inhibited
Inhibition of expression of IL-1β (in words) ([2]; over the tested concentrations): concentration-dependent

C[C@@H]1C[C@H]2[C@@H]3CCC4=CC(=O)C=C[C@]4(C)[C@@]3(F)[C@@H](O)C[C@]2(C)[C@@]1(O)C(=O)CO [DEX, dexamethason, reference compound]
Concentration of TNFα in PBMCs ([1]; 10 μM DEX): 39.5 ± 9.0 pg/mL
Inhibition ratio of production of TNFα in PBMCs ([1]; 10 μM DEX): 73.2 ± 6.1%
Concentration of IL-1β in PBMCs ([2]; 10 μM DEX): 20.2 ± 7.0 pg/mL
Inhibition ratio of production of IL-1β in PBMCs ([2]; 10 μM DEX): 82.7 ± 6.0%
